PubChem BioAssay (NCI)
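Protocol summary: plate cells (96-well), add compound at 5 concentrations, incubate 48 h, interpolate endpoints linearly. Abbreviation: GI50, concentration required for 50% inhibition of growth. TGI is the concentration that stops growth completely.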

Key:
Assay in all cases: NCI-60 cell line screen, 48 h
786-0 renal = tested on: 786-0 renal
A498 renal = tested on: A498 renal
A549 NSCLC = tested on: A549 NSCLC
ACHN renal = tested on: ACHN renal
BT-549 breast = tested on: BT-549 breast
CAKI-1 renal = tested on: CAKI-1 renal
CCRF-CEM leukemia = tested on: CCRF-CEM leukemia
COLO 205 colon = tested on: COLO 205 colon
DU-145 prostate = tested on: DU-145 prostate
HCC-2998 colon = tested on: HCC-2998 colon
HCT-116 colon = tested on: HCT-116 colon
HCT-15 colon = tested on: HCT-15 colon
HL-60(TB) leukemia = tested on: HL-60(TB) leukemia
HOP-62 NSCLC = tested on: HOP-62 NSCLC
HOP-92 NSCLC = tested on: HOP-92 NSCLC
HS 578T breast = tested on: HS 578T breast
HT29 colon = tested on: HT29 colon
IGROV1 ovarian = tested on: IGROV1 ovarian
K-562 leukemia = tested on: K-562 leukemia
KM12 colon = tested on: KM12 colon
LOX IMVI melanoma = tested on: LOX IMVI melanoma
M14 melanoma = tested on: M14 melanoma
MALME-3M melanoma = tested on: MALME-3M melanoma
MCF7 breast = tested on: MCF7 breast
MDA-MB-231 breast = tested on: MDA-MB-231 breast
MDA-MB-435 = tested on: MDA-MB-435
MOLT-4 leukemia = tested on: MOLT-4 leukemia
NCI-H226 lung = tested on: NCI-H226 lung
NCI-H23 lung = tested on: NCI-H23 lung
NCI-H460 lung = tested on: NCI-H460 lung
NCI-H522 lung = tested on: NCI-H522 lung
NCI/ADR-RES ovarian = tested on: NCI/ADR-RES ovarian
OVCAR-3 ovarian = tested on: OVCAR-3 ovarian
OVCAR-4 ovarian = tested on: OVCAR-4 ovarian
OVCAR-5 ovarian = tested on: OVCAR-5 ovarian
OVCAR-8 ovarian = tested on: OVCAR-8 ovarian
PC-3 prostate = tested on: PC-3 prostate
RPMI-8226 leukemia = tested on: RPMI-8226 leukemia
SF-268 CNS = tested on: SF-268 CNS
SF-295 CNS = tested on: SF-295 CNS
SF-539 CNS = tested on: SF-539 CNS
SK-MEL-2 melanoma = tested on: SK-MEL-2 melanoma
SK-MEL-28 melanoma = tested on: SK-MEL-28 melanoma
SK-MEL-5 melanoma = tested on: SK-MEL-5 melanoma
SK-OV-3 ovarian = tested on: SK-OV-3 ovarian
SN12C renal = tested on: SN12C renal
SNB-19 CNS = tested on: SNB-19 CNS
SNB-75 CNS = tested on: SNB-75 CNS
SR leukemia = tested on: SR leukemia
SW-620 colon = tested on: SW-620 colon
T-47D breast = tested on: T-47D breast
TK-10 renal = tested on: TK-10 renal
UACC-257 melanoma = tested on: UACC-257 melanoma
UACC-62 melanoma = tested on: UACC-62 melanoma
UO-31 renal = tested on: UO-31 renal

Compound O=C(NCCCN1CCC(N2CCCCC2)CC1)C1=Cc2cc(Br)ccc2OC1 has a GI50 (786-0 renal) of 11.2 µM, a TGI (786-0 renal) of 25.8 µM and a GI50 (A498 renal) of 3.88 µM. For the same compound, the TGI (A498 renal) was 18.7 µM, the GI50 (A549 NSCLC) was 5.66 µM and the TGI (A549 NSCLC) was 20.1 µM. The GI50 (ACHN renal) was 10.2 µM, the TGI (ACHN renal) was 27 µM and the GI50 (BT-549 breast) was 13.9 µM. For the same compound, the TGI (BT-549 breast) was 33 µM, the GI50 (CAKI-1 renal) was 2.46 µM and the TGI (CAKI-1 renal) was 6.09 µM. It also gave a GI50 (CCRF-CEM leukemia) of 4.24 µM, a TGI (CCRF-CEM leukemia) of 20.2 µM and a GI50 (COLO 205 colon) of 2.16 µM. The TGI (COLO 205 colon) was 4.29 µM, the GI50 (DU-145 prostate) was 15.5 µM and the TGI (DU-145 prostate) was 30.4 µM. It also gave a GI50 (HCC-2998 colon) of 13.5 µM, a TGI (HCC-2998 colon) of 27.2 µM and a GI50 (HCT-116 colon) of 5.29 µM. The TGI (HCT-116 colon) was 21.8 µM, the GI50 (HCT-15 colon) was 3.47 µM and the TGI (HCT-15 colon) was 17.1 µM. It also gave a GI50 (HL-60(TB) leukemia) of 4.94 µM, a TGI (HL-60(TB) leukemia) of 19.3 µM and a GI50 (HOP-62 NSCLC) of 13.8 µM. The TGI (HOP-62 NSCLC) was 27.2 µM, the GI50 (HOP-92 NSCLC) was 3.68 µM and the TGI (HOP-92 NSCLC) was 19.8 µM. It also gave a GI50 (HS 578T breast) of 12.2 µM, a TGI (HS 578T breast) of 33.4 µM and a GI50 (HT29 colon) of 3.21 µM. For the same compound, the TGI (HT29 colon) was 12.5 µM, the GI50 (IGROV1 ovarian) was 15.9 µM and the TGI (IGROV1 ovarian) was 39.4 µM. The GI50 (K-562 leukemia) was 1.98 µM, the TGI (K-562 leukemia) was 4.63 µM and the GI50 (KM12 colon) was 13.7 µM. For the same compound, the TGI (KM12 colon) was 27.8 µM, the GI50 (LOX IMVI melanoma) was 2.59 µM and the TGI (LOX IMVI melanoma) was 5.73 µM. The GI50 (M14 melanoma) was 2.22 µM, the TGI (M14 melanoma) was 4.71 µM and the GI50 (MALME-3M melanoma) was 2.11 µM. The TGI (MALME-3M melanoma) was 3.89 µM, the GI50 (MCF7 breast) was 4.45 µM and the TGI (MCF7 breast) was 17.1 µM. The GI50 (MDA-MB-231 breast) was 3.62 µM, the TGI (MDA-MB-231 breast) was 13.8 µM and the GI50 (MDA-MB-435) was 1.69 µM. It also gave a TGI (MDA-MB-435) of 3.55 µM, a GI50 (MOLT-4 leukemia) of 7.41 µM and a TGI (MOLT-4 leukemia) of 26.3 µM. It also gave a GI50 (NCI-H226 lung) of 16.9 µM, a TGI (NCI-H226 lung) of 34.5 µM and a GI50 (NCI-H23 lung) of 16.9 µM. The TGI (NCI-H23 lung) was 36.2 µM, the GI50 (NCI-H460 lung) was 8.43 µM and the TGI (NCI-H460 lung) was 23.6 µM. It also gave a GI50 (NCI-H522 lung) of 2.32 µM, a TGI (NCI-H522 lung) of 6.12 µM and a GI50 (NCI/ADR-RES ovarian) of 19.1 µM. It also gave a TGI (NCI/ADR-RES ovarian) of 52.2 µM, a GI50 (OVCAR-3 ovarian) of 12.3 µM and a TGI (OVCAR-3 ovarian) of 26.8 µM. For the same compound, the GI50 (OVCAR-4 ovarian) was 10 µM, the TGI (OVCAR-4 ovarian) was 32 µM and the GI50 (OVCAR-5 ovarian) was 19.9 µM. For the same compound, the TGI (OVCAR-5 ovarian) was 70.2 µM, the GI50 (OVCAR-8 ovarian) was 4.82 µM and the TGI (OVCAR-8 ovarian) was 26.9 µM. The GI50 (PC-3 prostate) was 11.7 µM, the TGI (PC-3 prostate) was 26.8 µM and the GI50 (RPMI-8226 leukemia) was 4.54 µM. It also gave a TGI (RPMI-8226 leukemia) of 22.4 µM, a GI50 (SF-268 CNS) of 3.51 µM and a TGI (SF-268 CNS) of 13 µM. For the same compound, the GI50 (SF-295 CNS) was 8.58 µM, the TGI (SF-295 CNS) was 24.8 µM and the GI50 (SF-539 CNS) was 2.09 µM. For the same compound, the TGI (SF-539 CNS) was 5.04 µM, the GI50 (SK-MEL-2 melanoma) was 8.14 µM and the TGI (SK-MEL-2 melanoma) was 22.1 µM. It also gave a GI50 (SK-MEL-28 melanoma) of 1.83 µM, a TGI (SK-MEL-28 melanoma) of 3.54 µM and a GI50 (SK-MEL-5 melanoma) of 1.89 µM. The TGI (SK-MEL-5 melanoma) was 3.61 µM, the GI50 (SK-OV-3 ovarian) was 16.2 µM and the TGI (SK-OV-3 ovarian) was 30.9 µM. The GI50 (SN12C renal) was 10.4 µM, the TGI (SN12C renal) was 24.1 µM and the GI50 (SNB-19 CNS) was 14.2 µM. It also gave a TGI (SNB-19 CNS) of 31.3 µM, a GI50 (SNB-75 CNS) of 10.9 µM and a TGI (SNB-75 CNS) of 23.3 µM. For the same compound, the GI50 (SR leukemia) was 2.5 µM, the TGI (SR leukemia) was 6.15 µM and the GI50 (SW-620 colon) was 5.16 µM. It also gave a TGI (SW-620 colon) of 19 µM, a GI50 (T-47D breast) of 2.04 µM and a TGI (T-47D breast) of 4.98 µM. For the same compound, the GI50 (TK-10 renal) was 14.3 µM, the TGI (TK-10 renal) was 27.7 µM and the GI50 (UACC-257 melanoma) was 1.9 µM. For the same compound, the TGI (UACC-257 melanoma) was 3.89 µM, the GI50 (UACC-62 melanoma) was 1.83 µM and the TGI (UACC-62 melanoma) was 3.49 µM. For the same compound, the GI50 (UO-31 renal) was 6.71 µM and the TGI (UO-31 renal) was 20.4 µM.
